The values that follow come from patent publication US20250074901A1, “NOVEL HETEROARYL COMPOUNDS” (ICAGEN, LLC, priority 2021, published 2025).

The experiment concerns the target T1, Kv7.2 (Homo sapiens, UniProt O43526).
T1 construct: expressed in transfected cells
Briefly: Activation of Kv7.2 (in vitro assay, concentration response curve). The experiment is classed as cell-based. Particulars: for Emax: Kv7.2 activation max %; for EC50: activation of Kv7.2. An outline of the steps:
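Agonist activity was measured in vitro across a range of compound concentrations and plotted as a sigmoidal concentration–response curve. EC50 is the concentration giving 50% of that compound's own maximal response (Emax).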

Usually Emax stands for the size of the effect at its maximum, as opposed to the concentration needed. As usually defined, the EC50 is the concentration giving half of the maximal effect. `CC(Oc1cc(CNC(=O)N[C@H]2C[C@H](C(F)(F)F)C2)ccn1)C(F)(F)F` (some centres unmarked) [Example 221, 1-[(1r,3r)-3-(trifluoromethyl)cyclobutyl]-3-[[2-(1,1,1-trifluoropropan-2-yloxy)pyridin-4-yl]methyl]urea]: the Emax stood at 78% and the response was half-maximal at 70 nM (EC50).

`O=C(NCc1ccnc(OC(F)F)c1)NC1CCC2C(C1)C2(F)F` (centres unmarked) [Example 222, 1-(7,7-difluoro-3-bicyclo[4.1.0]heptanyl)-3-[[2-(difluoromethoxy)pyridin-4-yl]methyl]urea] came in with an Emax of 76% and an EC50 of 180 nM.

As for `CC(Oc1cc(CNC(=O)NC23CC(F)(C2)C3)ccn1)C(F)(F)F` (centres unmarked) [Example 223, 1-(3-fluoro-1-bicyclo[1.1.1]pentanyl)-3-[[2-(1,1,1-trifluoropropan-2-yloxy)pyridin-4-yl]methyl]urea], the Emax was found to be 66% and the EC50 came out at 210 nM.

Consider `O=C(NCc1ccnc(OC2CC(F)(F)C2)c1)NC12CC(F)(C1)C2` [Example 224, 1-[[2-(3,3-difluorocyclobutyl)oxypyridin-4-yl]methyl]-3-(3-fluoro-1-bicyclo[1.1.1]pentanyl)urea], for which the Emax turned out to be 40% and the EC50 was determined as 540 nM.

For `O=C(NCc1ccnc(OC(F)F)c1)NC1CCOC(C(F)(F)F)C1` (centres unmarked) [Example 226, 1-[[2-(difluoromethoxy)pyridin-4-yl]methyl]-3-[2-(trifluoromethyl)oxan-4-yl]urea], the Emax stood at 40% and a half-maximal response (EC50) required 2450 nM.

`O=C(NCc1ccnc(OC(F)F)c1)NCC1(F)CCCC1` [Example 227, 1-[[2-(difluoromethoxy)pyridin-4-yl]methyl]-3-[(1-fluorocyclopentyl)methyl]urea] showed an Emax of 49% and an EC50 of 410 nM.

Compound `O=C(NCc1ccnc(OC(F)F)c1)NC(C(F)(F)F)C(F)(F)F` [Example 228, 1-[[2-(difluoromethoxy)pyridin-4-yl]methyl]-3-(1,1,1,3,3,3-hexafluoropropan-2-yl)urea] yielded an Emax of 58% and an EC50 of 260 nM.

As for `O=C(NCc1ccnc(OC(F)F)c1)NCC1(C(F)(F)F)CC1` [Example 229, 1-[[2-(difluoromethoxy)pyridin-4-yl]methyl]-3-[[1-(trifluoromethyl)cyclopropyl]methyl]urea], the Emax was 49% and the EC50 is 600 nM.

`O=C(NCc1ccnc(OC(F)F)c1)N[C@@H](C(F)F)C1CC(F)(F)C1` [Example 230, 1-[(1R)-1-(3,3-difluorocyclobutyl)-2,2-difluoroethyl]-3-[[2-(difluoromethoxy)pyridin-4-yl]methyl]urea] returned an Emax of 55% and a concentration giving a half-maximal response (EC50) of 1090 nM.

`CC(F)(F)c1cc(CNC(=O)Nc2cccc(Cl)c2)ccn1` [Example 231, 1-(3-chlorophenyl)-3-[[2-(1,1-difluoroethyl)pyridin-4-yl]methyl]urea] had an Emax of 51% and an EC50 of 800 nM.

Compound `O=C(Nc1cccc(CF)c1)NC(CO)c1ccnc(OCC(F)(F)F)c1` (centres unmarked) [Example 232, 1-[3-(fluoromethyl)phenyl]-3-[2-hydroxy-1-[2-(2,2,2-trifluoroethoxy)pyridin-4-yl]ethyl]urea] registered an Emax of 47% and an EC50 of 250 nM.

With `Cc1cccc(NC(=O)NC(CO)c2ccnc(OCC(F)(F)F)c2)c1` (centres unmarked) [Example 233, 1-[2-hydroxy-1-[2-(2,2,2-trifluoroethoxy)pyridin-4-yl]ethyl]-3-(3-methylphenyl)urea], the Emax was determined as 68% and the EC50 is 130 nM.

`O=C(NCc1ccnc(OCC(F)(F)F)c1)NC1CC(C2CC2)C1` (centres unmarked) [Example 235, 1-(3-cyclopropylcyclobutyl)-3-[[2-(2,2,2-trifluoroethoxy)pyridin-4-yl]methyl]urea] displayed an Emax of 88% and an EC50 of 80 nM.

`O=C(NCc1ccnc(OC(F)F)c1)NCC1(C(F)(F)F)CCC1` [Example 237, 1-[[2-(difluoromethoxy)pyridin-4-yl]methyl]-3-[[1-(trifluoromethyl)cyclobutyl]methyl]urea] displayed an Emax of 54% and a concentration giving a half-maximal response (EC50) of 160 nM.

Compound `O=C(NCc1ccnc(OCC(F)(F)F)c1)N[C@@H]1C[C@@H]2[C@H](C1)C2(F)F` [Example 238, 1-[(1R,3s,5S)-6,6-difluoro-3-bicyclo[3.1.0]hexanyl]-3-[[2-(2,2,2-trifluoroethoxy)pyridin-4-yl]methyl]urea] returned an Emax of 79% and an EC50 of 60 nM.

Take `O=C(NCc1ccnc(OC(F)F)c1)N[C@H]1CC[C@H](F)C1` [Example 239, 1-[[2-(difluoromethoxy)pyridin-4-yl]methyl]-3-[(1S,3S)-3-fluorocyclopentyl]urea]: the Emax came to 57% and the EC50 was 440 nM.

`O=C(Nc1ccc(F)c(F)c1)NC(CO)c1ccnc(OC(F)F)c1` (centres unmarked) [Example 240, 1-[1-[2-(difluoromethoxy)pyridin-4-yl]-2-hydroxyethyl]-3-(3,4-difluorophenyl)urea] registered an Emax of 55% and an EC50 of 300 nM.

Turning to `O=C(NCc1ccnc(OC(F)F)c1)N[C@H](C1CCC1)C(F)(F)F` [Example 241, 1-[(1R)-1-cyclobutyl-2,2,2-trifluoroethyl]-3-[[2-(difluoromethoxy)pyridin-4-yl]methyl]urea], the Emax was found to be 68% and a half-maximal response (EC50) required 70 nM.

For the compound `O=C(NCc1ccnc(OC(F)F)c1)N[C@@H](C1CCC1)C(F)(F)F` [Example 242, 1-[(1S)-1-cyclobutyl-2,2,2-trifluoroethyl]-3-[[2-(difluoromethoxy)pyridin-4-yl]methyl]urea], the Emax is 51% and the EC50 was 750 nM.

As to `O=C(NCc1ccnc(OC(F)F)n1)N[C@H]1C[C@H](C(F)(F)F)C1` [Example 243, 1-[[2-(difluoromethoxy)pyrimidin-4-yl]methyl]-3-[(1r,3r)-3-(trifluoromethyl)cyclobutyl]urea], the Emax stood at 42% and the EC50 was determined as 760 nM.

`O=C(NCc1ccnc(OC(F)F)c1)Nc1cc(F)ccc1F` [Example 244, 1-[[2-(difluoromethoxy)pyridin-4-yl]methyl]-3-(2,5-difluorophenyl)urea]: the Emax turned out to be 50% and the EC50 is 250 nM.

Consider `O=C(NCc1ccnc(OCC(F)(F)F)c1)Nc1cc(F)ccc1F` [Example 245, 1-(2,5-difluorophenyl)-3-[[2-(2,2,2-trifluoroethoxy)pyridin-4-yl]methyl]urea], for which the maximum response (Emax) is 54% and the midpoint of the response, the EC50, lay at 50 nM.

As to `O=C(NCc1ccnc(OC(F)F)c1)NC1(C23CC(C2)C3)CC1` [Example 246, 1-[1-(1-bicyclo[1.1.1]pentanyl)cyclopropyl]-3-[[2-(difluoromethoxy)pyridin-4-yl]methyl]urea], the Emax turned out to be 60% and the EC50 came to 540 nM.

Compound `O=C(NCc1ccnc(OC(F)F)c1)Nc1cccc(F)c1F` [Example 247, 1-[[2-(difluoromethoxy)pyridin-4-yl]methyl]-3-(2,3-difluorophenyl)urea] came in with an Emax of 53% and an EC50 of 90 nM.

Regarding `O=C(NCc1ccnc(OCC(F)(F)F)c1)Nc1cccc(F)c1F` [Example 248, 1-(2,3-difluorophenyl)-3-[[2-(2,2,2-trifluoroethoxy)pyridin-4-yl]methyl]urea], the Emax came to 62% and the midpoint of the response, the EC50, lay at 140 nM.

For `O=C(NCc1ccnc(OCF)c1)Nc1ccc(F)c(F)c1` [Example 249, 1-(3,4-difluorophenyl)-3-[[2-(fluoromethoxy)pyridin-4-yl]methyl]urea], the Emax amounted to 43% and the EC50 is 260 nM.

The compound `O=C(NCc1ccnc(OC(F)F)c1)N[C@@H]1CCC[C@H](C(F)(F)F)C1` [Example 250, 1-[[2-(difluoromethoxy)pyridin-4-yl]methyl]-3-[(1R,3S)-3-(trifluoromethyl)cyclohexyl]urea] displayed an Emax of 75% and an EC50 of 120 nM.

`[2H]C([2H])(NC(=O)NC12CCC(F)(CC1)CC2)c1ccnc(OC(F)F)c1` [Example 251, 1-[dideuterio-[2-(difluoromethoxy)pyridin-4-yl]methyl]-3-(4-fluoro-1-bicyclo[2.2.2]octanyl)urea] came in with an Emax of 60% and an EC50 of 130 nM.

For the compound `O=C(NCc1ccnc(OC(F)F)c1)NCC(C(F)(F)F)C(F)(F)F` [Example 252, 1-[[2-(difluoromethoxy)pyridin-4-yl]methyl]-3-[3,3,3-trifluoro-2-(trifluoromethyl)propyl]urea], the Emax came out at 73% and the EC50 was found to be 720 nM.

For the compound `O=C(NCc1ccnc(OC(F)F)c1)NC(C1CC1)C1CC1` [Example 253, 1-(dicyclo-propylmethyl)-3-[[2-(difluoromethoxy)pyridin-4-yl]methyl]urea], the Emax was 70% and the EC50 is 320 nM.

`O=C(NCc1ccnc(OCC(F)(F)F)c1)NC1(C2CC(F)(F)C2)CC1` [Example 254, 1-[1-(3,3-difluorocyclobutyl)cyclopropyl]-3-[[2-(2,2,2-trifluoroethoxy)pyridin-4-yl]methyl]urea] showed an Emax of 40% and a concentration giving a half-maximal response (EC50) of 1010 nM.

For `O=C(Nc1cc(F)cc(F)c1)NC(CO)c1ccnc(OCC(F)(F)F)c1` (centres unmarked) [Example 256, 1-(3,5-difluorophenyl)-3-[2-hydroxy-1-[2-(2,2,2-trifluoroethoxy)pyridin-4-yl]ethyl]urea], the Emax was 84% and the EC50 amounted to 30 nM.

In the case of `O=C(NCc1ccnc(OCC(F)(F)F)c1)N[C@H](C1CC1)C(F)(F)F` [Example 257, 1-[(1R)-1-cyclopropyl-2,2,2-trifluoroethyl]-3-[[2-(2,2,2-trifluoroethoxy)pyridin-4-yl]methyl]urea], the Emax worked out at 61% and the EC50 stood at 240 nM.

For `O=C(NCc1ccnc(OC(F)F)c1)NC1COC(C(F)(F)F)C1` (centres unmarked) [Example 258, 1-[[2-(difluoromethoxy)pyridin-4-yl]methyl]-3-[5-(trifluoromethyl)oxolan-3-yl]urea], the Emax is 53% and a half-maximal response (EC50) required 500 nM.
